Assay results: ChEMBL document CHEMBL5126613, “Novel CA(1-7)M(2-9) Analogs: Synthesis, Characterization, and Antibacterial Evaluation” (ACS Med Chem Lett, 2022)

Columns and labels:
[1] = tested on: Escherichia coli; test: Antibacterial activity against Escherichia coli ATCC 25922 assessed as reduction in bacterial growth measured for 18 to 20 hrs by microbroth dilution method; assay type: functional; settings: time 18-20 hrs
[2] = (§1) Selectivity index, ratio of HC50 for hemolytic activity in sheep RBC assessed as 50% hemolysis incubated for 30 mins by microplate reader method to MIC for antibacterial activity against Bacillus subtilis ATCC 6051 assessed as reduction in bacterial growth measured for 18 to 20 hrs by microbroth dilution method; assay type: toxicity; settings: sheep red blood cells (erythrocytes), read-out: Selectivity Index
[3] = as §1, with “Staphylococcus aureus” for “Bacillus subtilis”, “29213” for “6051”; assay type: toxicity; settings: sheep red blood cells (erythrocytes), read-out: Selectivity Index
[4] = Hemolytic activity in sheep RBC assessed as 50% hemolysis incubated for 30 mins by microplate reader method; assay type: toxicity, cell-based, Ovis aries, Erythrocyte; settings: sheep red blood cells (erythrocytes)
[5] = tested on: Bacillus subtilis; test: Antibacterial activity against Bacillus subtilis ATCC 6051 assessed as reduction in bacterial growth measured for 18 to 20 hrs by microbroth dilution method; assay type: functional; settings: time 18-20 hrs
[6] = tested on: Staphylococcus aureus; test: Antibacterial activity against Staphylococcus aureus ATCC 29213 assessed as reduction in bacterial growth measured for 18 to 20 hrs by microbroth dilution method; assay type: functional; settings: time 18-20 hrs
[7] = as §1, with “Escherichia coli” for “Bacillus subtilis”, “25922” for “6051”; assay type: toxicity; settings: sheep red blood cells (erythrocytes), read-out: Selectivity Index
[8] = Hemolytic activity in sheep RBC assessed as hemolysis incubated for 30 mins by microplate reader method; assay type: toxicity, cell-based, Ovis aries, Erythrocyte; settings: sheep red blood cells (erythrocytes), read-out: Activity
[9] = as §1, with “Pseudomonas aeruginosa” for “Bacillus subtilis”, “27853” for “6051”; assay type: toxicity; settings: sheep red blood cells (erythrocytes), read-out: Selectivity Index
[10] = tested on: Pseudomonas aeruginosa; test: Antibacterial activity against Pseudomonas aeruginosa ATCC 27853 assessed as reduction in bacterial growth measured for 18 to 20 hrs by microbroth dilution method; assay type: functional; settings: time 18-20 hrs
[11] = tested on: Erythrocyte; test: Hemolytic activity in sheep RBC assessed as hemolysis at 1000 ug/ml incubated for 30 mins by microplate reader method; assay type: toxicity, cell-based, Ovis aries; settings: 0.5 h, dose 1000 µg/ml

Substance	MIC [1] [µg/mL]	MIC [5] [µg/mL]	MIC [6] [µg/mL]	MIC [10] [µg/mL]	selectivity ratio at 30 min [2]	selectivity ratio at 30 min [3]	HC50 at 0.5 h [4] [µg/mL]	selectivity ratio at 30 min [7]	hemolysis at 0.5 h [8] [%]	selectivity ratio at 30 min [9]	Activity [11]
H-KWKLFKKIGAVLRVL-NH2	4	32	4	8	9	70	280	70	10	35	
H-KWKLFKRIGAVLKVL-NH2	4	64	4	8	> 16	> 250	> 1000	> 250	10	> 125	
H-KWRLFKKIGAVLKVL-NH2	4	32	4	8	23	188	750	188	10	94	
H-RWRLFRRIGAVLRVL-NH2	4	16	8	4	14	29	230	58		58	Toxic

Continued, in another order:

MIC [1] [µg/mL]	MIC [5] [µg/mL]	MIC [6] [µg/mL]	MIC [10] [µg/mL]	Substance	selectivity ratio at 30 min [2]	selectivity ratio at 30 min [3]	HC50 at 0.5 h [4] [µg/mL]	selectivity ratio at 30 min [7]	hemolysis at 0.5 h [8] [%]	selectivity ratio at 30 min [9]	Activity [11]
4	64	4	8	H-KWKLFRKIGAVLKVL-NH2	15	234	935	234	10	117	
4	32	4	8	H-RWKLFKKIGAVLKVL-NH2	14	113	450	113	10	56	
